Legend:
[1] = test system: Candida albicans and Trichophyton mentagrophytes var. quinkeanum; experiment: Oral antifungal test in mice inoculated with Candida (vagina) and Trichophyton (back), minimum effective dose; format: in vivo; details: 168 h; female mice, oral dosing twice on day 0 and once daily on days 1-4; skin lesions scored and vaginal samples cultured on day 7; read-out: minimum effective dose (MED)
Method: The following Monday (day 0) they are clipped on the back and then dosed orally with the test compound. They are then inoculated with Candida albicans in the vagina and Trichophyton mentagrophytes var. quinkeanum on the back, and then given a second dose of the same compound. Dosing is repeated once daily on days 1-4. On day 7 skin lesions are scored visually and vaginal samples taken for culture on agar. Groups of 5 mice are used and the compound is dosed initially at a level of 250 mg./kg. The dose is then reduced sequentially until a minimum effective dose (MED) is found. The MED for 2-(2-fluoro-4-trifluoromethylphenyl)-l,3-di(l,2,4-triazol-l-yl)-2-propanol in this test was 5 mg. per kg.

[2] = Teratogenicity / maternal toxicity in the rabbit; format: in vivo; details: lowest dose at which impaired maternal weight gain was observed
Method: As indicated above, the compound of this invention has been found not to be teratogenic at doses up to the maternally toxic dose. In both the rabbit and the rat, the maternally toxic dose was taken to be the lowest dose at which impaired maternal weight gain was observed. In the rabbit, this dose was 10 mg./kg. and in the rat between 25 and 50 mg./kg.

OC(Cn1cncn1)(Cn1cncn1)c1ccc(C(F)(F)F)cc1F [2-(2-fluoro-4-trifluoromethylphenyl)-l,3-di(l,2,4-triazol-l-yl)-2-propanol]
minimal effective dose [1]: 5 mg/kg | maternally toxic dose [2]: 10 mg/kg
